How the values were obtained:
[1] = tested on: AR target genes PSA, NKX3.1 and TMPRSS22; test: Quantitative RT-PCR of AR target genes in LNCaP cells; format: cell-based; settings: 50 nM, 8 hours
Procedure: (§1) Recombinant JMJD1A was mixed with in vitro translated […] AR in the absence or presence of R1881 (100 nM). After immunoprecipitation with anti-JHDM2A antibody, AR was detected by autoradiography. […] LNCaP cells were cultured in charcoal-stripped serum medium for three days and then treated without or with R1881 (50 nM) for 1 hour before being processed for ChIP analysis. […] LNCaP cells were transfected with a scramble (siCON), siJHDM2A or siLSD1 as indicated. Tubulin served as a loading control. […] The cells were treated as in FIG. 14B except the cells were collected for RNA isolation 8 hours after the R1881 treatment. […] The LNCaP cells were treated with siJHDM2A or siCON for three days and then 50 nM R1881 for 1 hour before processed for ChIP assays using antibodies as indicated.
For ChIP assay in LNCaP cells, the cells were cultured in charcoal-stripped serum medium for three days before treatment with R1881 (50 nM) for 1 hour. […]
To directly test and compare the role of JHDM2A and LSD1 in hormone-dependent transcriptional activation, we used siRNA to knockdown JHDM2A and LSD1 in LNCaP cells (FIG. 14C). We then evaluated the effects of JHDM2A or LSD1 knockdown on the hormone induced activation of three AR target genes, PSA, NKX3.1 and TMPRSS22, by quantitative RT-PCR. […]

[2] = tested on: PSA enhancer and NKX3.1 gene; test: ChIP assay in LNCaP cells; format: cell-based; settings: 50 nM, 1 hour
Procedure: as §1
For ChIP assay in LNCaP cells, the cells were cultured in charcoal-stripped serum medium for three days before treatment with R1881 (50 nM) for 1 hour. The ChIP assay was performed essentially as previously described (Yoon, et al. (2005) Mol. Cell Biol. 25:324-335). Primers for RT-PCR analysis of the PSA mRNA were 5′-GCCCACCCAGGAGCCAGCACT-3′ (SEQ ID NO:27) and 5′-GGCCCCCAGAATCACCCGAGCAG-3′ (SEQ ID NO:28).

[3] = tested on: modified histone H3 peptide substrates (H3K4 me3, me2, me1); test: Histone demethylase assay with modified histone H3 peptide substrates, mass spectrometry; format: biochemical

## C[C@]1(O)CC[C@H]2[C@@H]3CCC4=CC(=O)CCC4=C3C=C[C@@]21C [R1881]
[1]
  transcription from AR target genes: robustly activated transcription
[2]
  binding of the AR to the PSA enhancer: strong binding

## RBP2: Flag-tagged JmjC domain H3K4 demethylase expressed in SF9 cells by baculovirus, affinity purified
[3]; H3K4me1 peptide, in vitro
  removal of the me1 modification state: failed to catalyze removal
[3]; H3K4me3 and me2 peptides, recombinant Flag-RBP2
  demethylation of the modified substrate: 80-90%

From patent publication US20160244802A1, “Protein Demethylases Comprising a JMJC Domain” (The University of North Carolina at Chapel Hill, priority 2005, published 2016)
